Laboratory results as given in US8471021B2, “Sulfur containing heterocycle-fused naphthalene tetracarboxylic acid diimide derivatives, preparation method and use thereof” (Shanghai Institute Of Organic Chemistry, Chinese Academy Of …, priority 2009, dated 2013).

Assays:
[1] = UV absorption spectrum in dichloromethane; assay type: physicochemical; settings: for optical band gap: calculated by equation (1), 1240 nm/λonset
Protocol: UV absorption spectrum measurement was conducted using U-3900 spectrometer. Samples were dissolved in dichloromethane to a molar concentration of 1×10^−6M, the scanning scope was 800-200 nm, and the optical band gap of the compound was calculated according to the following equation, Egap^opt=1240 nm/λonset (1)

[2] = Cyclic voltammetry in dichloromethane; assay type: physicochemical; settings: for LUMO energy level: calculated by equation (2), −(E1/2^red1+4.44); for half-wave potential E1/2^red1 / half-wave potential E1/2^red2: Bu4NPF6 0.1 M, 50 mV/s
Protocol: Cyclic voltammetry measurement was conducted by CHI610D electrochemical analyzer with computer control using a conventional tri-electrode system with platinum electrode as a working electrode, saturated calomel electrode (SCE) as a reference electrode, and platinum wire as a counter electrode. Samples were dissolved in freshly distilled dichloromethane to a molar concentration of 1×10^−3 M. Bu4NPF6 (0.1 M) was applied as a supporting electrolyte. The scan rate was 50 mV/s. Using saturated calomel as reference, taking the SCE energy level to be −4.44 eV below the vacuum level, the LUMO energies for the test material can be calculated by using the following equation for energy level: ELUMO=−(E1/2^red1+4.44) eV (2)

[3] = Solubility in common organic solvents at room temperature; assay type: physicochemical; settings: for example chloroform, tetrahydrofuran
Source text: The 21 exemplary compounds (1˜21) described above for the five classes of sulfur containing heterocycle fused naphthalenetetracarboxylic acid diimide derivatives are soluble in regular organic solvents, such as chloroform, toluene, chlorobenzene, dichlorobenzene, and the like.

[4] = Cyclic voltammetry in dichloromethane; assay type: physicochemical; settings: calculated by equation (3), −(Ered^onset+4.4)

SMILES	melting point	optical band gap [1]	maximum UV absorption peak ([1]; dichloromethane, 1×10^−6M)	LUMO energy level [2]	half-wave potential E1/2^red1 ([2]; vs SCE, dichloromethane)	half-wave potential E1/2^red2 ([2]; vs SCE, dichloromethane)	further results
CCCCCCCCC(CCCCCC)Cn1c(=O)c2c3sc(=C(C#N)C#N)sc3c3c(=O)n(CC(CCCCCC)CCCCCCCC)c(=O)c4c5sc(=C(C#N)C#N)sc5c(c1=O)c2c34 (stereo not shown) [Compound 3, N,N′-di(2-hexyldecyl)-[2,3-d:6,7-d′]-bi[2-(1,3-dithiacyclopenten-2-ylidene)-2-malononitrile]-naphthalene-1,4,5,8-tetracarboxylic acid diimide]	317 to 319 °C						
CCCCCCCCCCCCC(CCCCCCCCCC)CN1C(=O)c2c3sc(C#N)c(C#N)c3c3c4c(c5sc(C#N)c(C#N)c5c(c24)C1=O)C(=O)N(CC(CCCCCCCCCC)CCCCCCCCCCCC)C3=O (stereo not drawn) [Compound 18, N,N′-di(2-decyl-tetradecyl)-[2,3-d:6,7-d′]-bi[α,β-dicyanothiophene]-naphthalene-1,4,5,8-tetracarboxylic acid diimide]		2.2 eV	250˜318 nm	−4.63 eV	0.19 V	−0.40 V	end absorption peak ([1]; dichloromethane, 1×10^−6M): 545 nm
CCCCCCC(CCCCCC)Cn1c(=O)c2c3sc(=C(C#N)C#N)sc3c3c(=O)n(CC(CCCCCC)CCCCCC)c(=O)c4c5sc(=C(C#N)C#N)sc5c(c1=O)c2c34 [Compound 4, N,N′-di(2-hexyloctyl)-[2,3-d:6,7-d′]-bi[2-(1,3-dithiacyclopenten-2-ylidene)-2-malononitrile]-naphthalene-1,4,5,8-tetracarboxylic acid diimide]	349 to 351 °C						
CCCCCCCCn1c(=O)c2c3sc(=C(C#N)C#N)sc3c3c(=O)n(CCCCCCCC)c(=O)c4c5sc(=C(C#N)C#N)sc5c(c1=O)c2c34 [Compound 8, N,N′-di(n-octyl)-[2,3-d:6,7-d′]-bi[2-(1,3-dithiacyclopenten-2-ylidene)-2-malononitrile]-naphthalene-1,4,5,8-tetracarboxylic acid diimide]							solubility [3]: relatively low solubility
CCCCCCC(CCCC)Cn1c(=O)c2c3sc(=C(C#N)C#N)sc3c3c(=O)n(CC(CCCC)CCCCCC)c(=O)c4c5sc(=C(C#N)C#N)sc5c(c1=O)c2c34 (stereo not shown) [Compound 5, N,N′-di(2-butyloctyl)-[2,3-d:6,7-d′]-bi[2-(1,3-dithiacyclopenten-2-ylidene)-2-malononitrile]-naphthalene-1,4,5,8-tetracarboxylic acid diimide]	369 to 371 °C						
CCCCCCCCC(CCCCCC)CCn1c(=O)c2c3sc(=C(C#N)C#N)sc3c3c(=O)n(CCC(CCCCCC)CCCCCCCC)c(=O)c4c5sc(=C(C#N)C#N)sc5c(c1=O)c2c34 (stereo not shown) [Compound 7, N,N′-di(3-hexylundecyl)-[2,3-d:6,7-d′]-bi[2-(1,3-dithiacyclopenten-2-ylidene)-2-malononitrile]-naphthalene-1,4,5,8-tetracarboxylic acid diimide]	330 to 332 °C						
CCCCCCCCCCC(CCCCCCCC)Cn1c(=O)c2c3sc(=C(C#N)C(=O)OCC)sc3c3c(=O)n(CC(CCCCCCCC)CCCCCCCCCC)c(=O)c4c5sc(=C(C#N)C(=O)OCC)sc5c(c1=O)c2c34 (stereo not shown) [Compound 9, N,N′-di(2-octyldodecyl)-[2,3-d:6,7-d′]-bi[ethyl 2-(1,3-dithiacyclopenten-2-ylidene)-2-cyanoacetate]-naphthalene-1,4,5,8-tetracarboxylic acid diimide]		2.0 eV	around 581 nm	−4.23 eV	−0.21 V	−0.68 V	
CCCCC(CC)Cn1c(=O)c2c3sc(=C(C#N)C#N)sc3c3c(=O)n(CC(CC)CCCC)c(=O)c4c5sc(=C(C#N)C#N)sc5c(c1=O)c2c34 (stereo not shown) [Compound 6, N,N′-di(2-ethylhexyl)-[2,3-d:6,7-d′]-bi[2-(1,3-dithiacyclopenten-2-ylidene)-2-malononitrile]-naphthalene-1,4,5,8-tetracarboxylic acid diimide]							solubility [3]: relatively low solubility
CCCCCCCCCCC(CCCCCCCC)Cn1c(=O)c2c3sc(=C(C#N)C#N)sc3c3c(=O)n(CC(CCCCCCCC)CCCCCCCCCC)c(=O)c4c5sc(=C(C#N)C#N)sc5c(c1=O)c2c34 (stereo not shown) [Compound 2, N,N′-di(2-octyldodecyl)-[2,3-d:6,7-d′]-bi[2-(1,3-dithiacyclopenten-2-ylidene)-2-malononitrile]-naphthalene-1,4,5,8-tetracarboxylic acid diimide]	265 °C						
CCCCCCCCCCC(CCCCCCCC)Cn1c(=O)c2c3sc(C#N)c(C#N)sc3c3c(=O)n(CC(CCCCCCCC)CCCCCCCCCC)c(=O)c4c5sc(C#N)c(C#N)sc5c(c1=O)c2c34 (stereo not shown) [Compound 15, N,N′-di(2-octyl-dodecyl)-[2,3-d:6,7-d′]-bi[1,4-dithiacyclohexadiene-2,3-dicarbonitrile]-naphthalene-1,4,5,8-tetracarboxylic acid diimide]		2.0 eV	around 550 nm	−4.28 eV	−0.16 V	−0.64 V	
CCCCCCCCCCCCC(CCCCCCCCCC)Cn1c(=O)c2c3sc(=C(C#N)C#N)sc3c3c(=O)n(CC(CCCCCCCCCC)CCCCCCCCCCCC)c(=O)c4c5sc(=C(C#N)C#N)sc5c(c1=O)c2c34 (stereo not shown) [Compound 1, N,N′-di(2-decyltetradecyl)-[2,3-d:6,7-d′]-bi[2-(1,3-dithiacyclopenten-2-ylidene)-2-malononitrile]-naphthalene-1,4,5,8-tetracarboxylic acid diimide]	240 °C	2.1 eV	around 573 nm	−4.35 eV	−0.09 V	−0.63 V	
CCCCCCCCCCCCC(CCCCCCCCCC)Cn1c(=O)c2c3sc(=C(C#N)c4ccccc4)sc3c3c(=O)n(CC(CCCCCCCCCC)CCCCCCCCCCCC)c(=O)c4c5sc(=C(C#N)c6ccccc6)sc5c(c1=O)c2c34 (stereo not shown) [Compound 12, N,N′-di(2-decyltetradecyl)-[2,3-d:6,7-d′]-bi[2-(1,3-dithiacyclopenten-2-ylidene)-2-phenylacetonitrile]-naphthalene-1,4,5,8-tetracarboxylic acid diimide]		1.8 eV	around 655 nm		-0.81 V		onset reduction potential Ered^onset ([2]; vs SCE, dichloromethane): −0.23 V; LUMO energy level [4]: −4.17 eV
